# Measured values taken from paper PMC5462475, “A conformational switch high-throughput screening assay and allosteric inhibition of the flavivirus NS2B-NS3 protease” (PLoS Pathogens, 2017).
# Entries after “also recorded” stand apart in the source; their conditions may differ. Read-outs that look alike come from different tables or passages of the source.
# Tests used:
# [1] = target: T1, DENV2 NS2B-NS3 V154A mutant (Dengue virus type 2, UniProt P14340, V1629A); assay type: binding
# YFV [2] = test: microbe, parasite or virus in culture; settings: Yellow fever virus, A549, 48 h, read-out: EC50, YFV viral reduction
# WNV [3] = tested on: WNV
# [4] = target: T1, DENV2 NS2B-NS3 V154A mutant; assay type: biochemical; settings: compound 6 μM, protein 150 nM, vs DMSO
# unlinked DENV2 NS2B/NS3 = target: T2, unlinked DENV2 NS2B/NS3 (Dengue virus type 2, UniProt P14340); test: Protein thermal shift assay (PTSA), unlinked DENV2 NS2B/NS3; assay type: binding; settings: unlinked NS2B/NS3 2.5 μM, compound 4.8 μM
# T2 construct: pairs of primers of 1394F and 1440C for NS2B and 1476F and 1660C for NS3; made in house; host or cells: Escherichia coli Rosetta 2(DE3)
# Excerpt: N = 3. […] N = 3. […] PP, ZIKV polyprotein precursor. **, p<0.05.
# [5] = target: T3, DENV2 NS2B-NS3 N152A mutant (Dengue virus type 2, UniProt P14340, N1627A); assay type: binding
# [6] = target: T4, DENV2 NS2B-NS3 I123A mutant (Dengue virus type 2, UniProt P14340, I1598A); assay type: biochemical; settings: compound 6 μM, protein 150 nM, vs DMSO
# ZIKV [7] = test: microbe, parasite or virus in culture; assay type: cell-based; settings: hNPCs, MOI 2
# [8] = target: T5, DENV2 NS2B-CLuc-NS3-119-NLuc-NS3 120-to-NS3_C (N2CN3N) (UniProt P08659+P14340); assay type: biochemical
# T5 construct: pairs of primers of 1394F and 1440C for NS2B and 1476F and 1660C for NS3; made in house; host or cells: Escherichia coli Rosetta 2(DE3)
# T5 sequence (P08659 whole entry, looked up, other chains not shown): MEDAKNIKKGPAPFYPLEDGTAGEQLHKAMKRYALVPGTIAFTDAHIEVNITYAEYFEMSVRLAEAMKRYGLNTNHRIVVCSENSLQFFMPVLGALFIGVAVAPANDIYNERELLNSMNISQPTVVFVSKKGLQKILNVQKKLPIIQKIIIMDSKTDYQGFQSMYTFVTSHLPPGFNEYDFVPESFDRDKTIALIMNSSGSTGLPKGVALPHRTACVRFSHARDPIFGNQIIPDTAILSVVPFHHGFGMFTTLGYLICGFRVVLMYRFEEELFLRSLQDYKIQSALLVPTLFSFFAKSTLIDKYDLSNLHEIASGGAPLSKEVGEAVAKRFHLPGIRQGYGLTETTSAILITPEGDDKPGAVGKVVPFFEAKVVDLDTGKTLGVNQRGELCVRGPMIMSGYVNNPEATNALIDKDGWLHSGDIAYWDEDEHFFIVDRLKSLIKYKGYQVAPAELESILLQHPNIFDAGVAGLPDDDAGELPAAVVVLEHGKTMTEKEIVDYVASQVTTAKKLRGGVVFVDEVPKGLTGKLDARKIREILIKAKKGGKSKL
# [9] = target: T4, DENV2 NS2B-NS3 I123A mutant; assay type: binding
# [10] = target: T3, DENV2 NS2B-NS3 N152A mutant; assay type: biochemical; settings: compound 6 μM, protein 150 nM, vs DMSO
# DENV2 [11] = test: microbe, parasite or virus in culture; settings: Dengue virus, A549, 48 h, read-out: EC50, DENV2 viral reduction
# [12] = target: T6, DENV2 NS2B-NS3 K74A mutant (Dengue virus type 2, UniProt P14340, K1549A); assay type: binding
# [13] = target: T7, unlinked ZIKV NS2B/NS3 protease (Zika virus, UniProt A0A024B7W1); test: ZIKV unlinked NS2B/NS3 protease inhibition assay; assay type: biochemical; settings: protease 150 nM
# T7 construct: The construct contains the NS2B residues 49–95 and the NS3 residues 1–185; made in house; host or cells: E. coli (Rosetta 2(DE3))
# Excerpt: As flavivirus NS3 is highly conserved (Fig 3C), it is possible that the inhibitors identified are broad spectrum flavivirus inhibitors. We therefore investigated whether NSC135618 is effective against other flaviviruses. Because ZIKV treatment currently has the most urgent need, we evaluated the efficacy of the compound on ZIKV. To this end, we first constructed an unlinked NS2B/NS3 heterocomplex of ZIKV in the pET28a vector by engineering a 3C protease cleavage site within the GGGSGGGG linker region between NS2B and NS3. The NS2B/NS3 protease was first expressed as a His-tagged covalently linked single chain protein in E coli. The unlinked ZIKV NS2B/NS3 protease complex was generated by on-column digestion with thrombin and 3C proteases, followed by gel filtration chromatography.
# Fig 7 Inhibition of the ZIKV protease activity, viral titer, protein expression, and viral RNA replication by NSC135618. […] ST, molecular weight (MW) standard. (B) Dose response inhibition of the unlinked ZIKV NS2B-NS3 protease by NSC135618. The NS2b/NS3 protease was at 150 nM. N = 3. (C) Dose-dependent inhibition of ZIKV by NSC135618 in A549 cells. Viral plaque reduction assay was used. N = 3. (D) Immunofluorescence assay (IFA) of inhibition of viral protein expression for ZIKV-infected A549 cells by NSC135618, using pan flavivirus anti-E antibody 4G2. […]
# DENV2 [14] = tested on: DENV2
# [15] = target: T6, DENV2 NS2B-NS3 K74A mutant; assay type: biochemical; settings: compound 6 μM, protein 150 nM, vs DMSO
# YFV [16] = tested on: YFV
# ZIKV [17] = test: microbe, parasite or virus in culture; assay type: cell-based; settings: HPECs, MOI 2
# in vitro = settings: human
# ZIKV [18] = test: microbe, parasite or virus in culture; settings: Zika virus, A549, 48 h, read-out: EC50, ZIKV viral reduction
# [19] = tested on: ZIKV NS3 / polyprotein precursor; test: Western blot of ZIKV NS3 expression and polyprotein processing in infected A549 cells
# ZIKV [20] = settings: A549 cells
# WNV [21] = test: microbe, parasite or virus in culture; settings: West Nile virus, A549, 48 h, read-out: EC50, WNV viral reduction
# [22] = protein 2.5 μM, compound 4.8 μM
structure (smiles),measurement,setting,value
O=C1C=CC(=NNc2ccc([N+](=O)[O-])cc2Cl)C=C1C(=O)Nc1cccc(Cl)c1 [NSC135618],Tm (V154A),[1]; Fig 10D,52.09 °C
same,ΔTm (V154A),[1]; [22],1.75 °C
same,EC50,YFV [2],0.28 µM
same,"TI (therapeutic index, CC50/EC50)",WNV [3],38
same,"EC50, WNV viral reduction","WNV [3]; A549 cells, MOI 0.1, 48 h",low micromolar range
same,inhibition of protease activity of V154A mutant,[4],slightly reduced the inhibition activity
same,increase of melting temperature (ΔTm) vs DMSO,unlinked DENV2 NS2B/NS3,4.8 °C
same,Tm (N152A),[5]; Fig 10D,53.63 °C
same,ΔTm (N152A),[5]; [22],0.55 °C
same,inhibition of protease activity of I123A mutant,[6],retains its inhibition activity
same,EC50,"ZIKV [7]; Zika virus, read-out: EC50, ZIKV inhibition in hNPCs",1.9 µM
same,ZIKV RNA replication (qRT-PCR),ZIKV [7],considerably reduce
same,ZIKV protein expression (IFA),ZIKV [7],considerably reduce
same,reduction of ZIKV titers,ZIKV [7],considerably reduce ZIKV titers
same,suppression of NPGB-induced SLC enhancement,"[8]; compound 40 μM, NPGB 30 μM, N2CN3N 150 nM",abolish the SLC enhancement induced by NPGB to the background level
same,effect of compound alone on background SLC,"[8]; compound 40 μM, no NPGB, compared to DMSO",did not have significant effect on background SLC
same,"inhibition of NPGB-induced SLC enhancement, concentration series","[8]; serial dilution of compound, NPGB 30 μM",significantly suppressed the SLC enhancement; also recorded: clearly inhibited the NPGB-induced SLC enhancement in a dose dependent manner
same,Tm (I123A),[9]; Fig 10D,44.34 °C
same,ΔTm (I123A),[9]; [22],2.69 °C
same,inhibition of protease activity of N152A mutant,[10],completely abolished the inhibition activity
same,EC50,DENV2 [11],0.81 µM
same,Tm (K74A),[12]; Fig 10D,42.19 °C
same,ΔTm (K74A),[12]; [22],2.48 °C
same,IC50,[13],0.38 µM
same,DENV2 viral RNA copy numbers (qRT-PCR),DENV2 [14]; A549 cells,greatly reduced viral RNA copy numbers in a dose dependent manner
same,"EC50, DENV2 viral reduction","DENV2 [14]; A549 cells, MOI 0.1, 48 h",low micromolar range
same,DENV2 viral production (titer) relative to DMSO control,"DENV2 [14]; A549 cells, compound at 1, 10 and 100 μM, 48 h post-infection",significantly reduced
same,"TI (therapeutic index, CC50/EC50)","DENV2 [14]; DENV2, A549 cells",60
same,inhibition of protease activity of K74A mutant,[15],retains its inhibition activity
same,"EC50, YFV viral reduction",YFV [16],low micromolar range
same,"TI (therapeutic index, CC50/EC50)",YFV [16],174
same,ZIKV RNA replication (qRT-PCR),ZIKV [17],drastically decreased ZIKV RNA replication
same,ZIKV protein expression (IFA),ZIKV [17],drastically decreased
same,inhibition of ZIKV (titer),ZIKV [17],effectively inhibited ZIKV in HPECs in a dose-dependent manner
same,EC50,"ZIKV [17]; Zika virus, Epithelial cell, read-out: EC50, ZIKV inhibition in HPECs",1 µM
same,CC50,in vitro,48.8 µM
same,EC50,ZIKV [18],1 µM
same,"unprocessed viral polyprotein precursor (high MW band, Western blot)",[19]; 0.19 μM to 3 μM,accumulation of high molecular weight (MW) protein
same,"ZIKV NS3 expression (Western blot, normalized to GAPDH)","[19]; 0.75 μM to 6 μM, 48 h",significant inhibition of ZIKV NS3 expression
same,viral protein expression (Western blot),[19]; 6 μM,nearly completely suppressed viral protein expression
same,"ZIKV viral protein expression (IFA, anti-E antibody 4G2)",ZIKV [20],greatly reduced viral protein expression
same,"EC50, ZIKV viral reduction","ZIKV [20]; MOI 0.1, 48 h",low micromolar range
same,ZIKV viral RNA copy numbers (qRT-PCR),ZIKV [20]; supernatant,greatly reduced
same,"TI (therapeutic index, CC50/EC50)",ZIKV [20]; ZIKV,49
same,EC50,WNV [21],1.27 µM
